Data: US20110124842A1 (priority 2003, published 2011)
Like-named read-outs stand apart in the source and are kept apart here. Bridges are numbered along the chain shown (N, C = ends). Where no end group is shown, it is not given here. [ ]: non-standard residue; d: D form. code O = not defined here

How the values were obtained:
IgG 4E10 = test: Competitive ELISA (IC50): peptide competes with biotinylated 4E10-epitope peptide for IgG 4E10; assay type: binding, human; settings: for increased binding affinity in comparison with its peptide control: 33-1 vs control 44-1, 104-2 vs control 104-1, ELISA; for higher affinity of 4E10 than to the original peptide KGND: as determined by surface plasmon resonance and ELISA
Description: IC50, were determined by competitive ELISA using a constant concentration of biotinylated peptide and IgG with a variable concentration of gp41 peptides. Microwells were coated overnight at 4° C. with 50 μl PBS containing neutravidin (Pierce; 4 μg/ml). […] A mixture of a biotinylated 4E10-epitope peptide, […](biotin)-NH2 (SEQ ID NO: 88) (20 nM), IgG 4E10 (0.2 nM), and the competing peptide analog (3-fold dilution series starting at 10 μM) in 0.4% non-fat dry milk, 0.02% Tween and PBS was incubated in a separate 96-well plate at 37° C. for 2 hours. After washing the blocked plate, the mixture of 4E10, biotinylated peptide and competing peptide was added to the wells. After 20 minutes at room temperature, the Wells were washed five times, and a 1:500 dilution of goat anti-human IgG F(ab′)2 HRP conjugate (Pierce) was added. Following incubation at RT for 40 minutes, the wells were washed five times, and developed by adding 50 μl of TMB solution (Pierce) according to the manufacturer's instructions. After ˜20 minutes, wells containing TMB solution were stopped by adding 50 μl of H2SO4 (2M) and the O.D. at 450 nm was read on a microplate reader (Molecular Devices). The concentration of competitor peptide corresponding to a half-maximal signal (IC50) was determined by interpolation of the resulting binding curve. Each peptide competitor was tested in duplicate in at least two separate experiments.
IC50s were determined by competitive ELISA using a constant concentration of biotinylated peptide and IgG with a variable concentration of gp41 peptides. Microwells were coated overnight at 4° C. with 50 μl PBS containing neutravidin (Pierce; 4 μg/ml). […] Meanwhile, a mixture of a biotinylated 4E10-peptide epitope, […](biotin)-NH2 (SEQ ID NO: 88), (20 nM), IgG 4E10 (0.2 nM), and the competing peptide analogue (3-fold dilution series starting at 10 μM) in 0.4% NFDM, 0.02% Tween and PBS was incubated in a separate 96-well plate at 37° C. for 2 h. After washing the blocked plate, the mixture of 4E10, biotinylated peptide and competing peptide was added to the wells. After 20 min at room temperature, the wells were washed five times, and a 1:500 dilution of goat anti-human IgG F(ab′)2 HRP conjugate (Pierce) was added. Following incubation at RT for 40 min, the wells were washed five times, and developed by adding 50 μl of H2SO4 (2 M), and the O.D. at 450 nm was read on a microplate reader (Molecular Devices). The concentration of competitor peptide corresponding to a half-maximal signal (IC50) was determined by interpolation of the resulting binding curve. Each peptide competitor was tested in duplicate in at least two separate experiments.

Fab 4E10 = test: Surface plasmon resonance (Biacore 2000), Fab 4E10 on CM5 chip; assay type: binding, human
Description: The affinitiefs of the peptide analogs for 4E10 were also measured by surface plasmon resonance. Surface plasmon resonance experiments were performed using a Biacore 2000 instrument (Uppsala, Sweden). Around 2,200 response units (RU) of Fab 4E10 were coated on CM5 chips. The carboxyl groups on the chip were activated with 1-ethyl-3-(3-dimethylaminopropyl)carbodiimide hydrochloride (EDC) and N-hydroxysuccinimide (NHS). Fifty micrograms of Fab were diluted in 10 mM sodium acetate pH 4.5; a flow rate of 5 μl/min was used. Unreacted carboxyl groups were blocked with 1M ethanolamine at pH 8.5. The control was treated in the same fashion without any antibody present. Different amounts of free peptides were then passed over the surfaces at 30 or 50 μl/min for 2 min. Regeneration was done in HPS-EP buffer, 0.25 NaCl (Biacore) in 10 minutes. The amount of salt was increased compared to the commercial buffer to reduce the non-specific binding. For data evaluation, the BIAevaluation software was used. RI and Rmax were controlled, double referencing were done (0 concentration and start point). Analyses were performed to achieve the best curve fitting and small chi^2 (<1).
Surface plasmon resonance experiments were performed using a Biacore 2000 instrument (Uppsala, Sweden).
Chip preparation: around 2,200 response units (RU) of Fab 4E10 were coated on CM5 chips. The carboxyl groups on the chip were activated with 1-ethyl-3-(3-dimethylaminopropyl) carbodiimide hydrochloride (EDC) and N-hydroxysuccinimide (NHS). Fifty micrograms of Fab was diluted in 10 mM sodium acetate pH 4.5; a flow rate of 5 μl/min was used. Unreacted carboxyl groups were blocked with 1M ethanolamine at pH 8.5. The control was treated in the same fashion without any antibody present.
Experiment: different amounts of free peptides were then passed over the surfaces at 30 or 50 μl/min for 2 min. Regeneration was done in HPS-EP buffer, 0.25 NaCl (Biacore) in 10 min. The amount of salt was increased compared to the commercial buffer to reduce the non-specific binding.
Data evaluation: the BIAevaluation software was used. RI and Rmax were controlled, double referencing were done (0 concentration and start point). Analyses were performed to achieve the best curve fitting and small chi^2 (<1).

[1] = Table 5, unconstrained peptide analogs, 4E10 binding, read-out: IC50
[2] = Table 6, constrained analogs, 4E10 binding, read-out: IC50
[3] = Table 7, 4E10 peptide epitopes, read-out: IC50
[4] = read-out: IC50 (4E10 binding, competitive ELISA)
[5] = Table 7, 4E10 peptide epitopes, read-out: Kd

KGWNWFDITNWGK [KGND]
IC50 (IgG 4E10; [1]): > 10000 nM | IC50 (IgG 4E10; [2]): > 10000 nM | IC50 (IgG 4E10; [3]): > 10000 nM | IC50 (IgG 4E10; [4]): 10000 nM

KKBNWFDITNWLWKBKBK-NH2 (KKXNWFDITNWLWKXKXK-NH2; not fully specified (residues 3, 15, 17); printed as KKBNWFDITNWLWKBKBK-NH2) [Peptide 102-2]
IC50 (IgG 4E10; [2]): 10 nM

NWFCITOWLWKKKK-NH2 (NWFCIT[code O]WLWKKKK-NH2; not fully specified; printed as NWFCITOWLWKKKK-NH2; reading uncertain) [Peptide 104-1]
IC50 (IgG 4E10; [1]): 40 nM | IC50 (IgG 4E10; [3]): 40 nM

NWFDITN-Aib-LWRR-NH2 [Peptide 33-1]
increased binding affinity in comparison with its peptide control (IgG 4E10): 3 fold | IC50 (IgG 4E10; [3]): 100 to 400 nM | higher affinity of 4E10 than to the original peptide KGND (IgG 4E10): approximately 10^3 fold | koff (Fab 4E10; Table 7): 0.13 s⁻¹ | kon (Fab 4E10; Table 7): 431000 M⁻¹ s⁻¹ | Kd (Fab 4E10; [5]): 302 nM

NWFDITNWLWKBKBK-NH2 [Peptide 102-1]
IC50 (IgG 4E10; [4]): 10 nM

NWFDITNWLWKKKK [Peptide 84-1, NWFDITNWLWKKKK-NH2]
IC50 (IgG 4E10; [4]): 40 nM | Kd (Fab 4E10; Table 5, unconstrained peptide analogs, 4E10 binding, read-out: Kd): 100 nM

NWFDITNWLWRR [Peptide 44-1, NWFDITNWLWRR-NH2]
IC50 (IgG 4E10; [3]): 600 nM

NWFc(CITO)WLWKKKK-NH2 (NWFCIT[code O]WLWKKKK-NH2; bridge 4-7; reading uncertain; also: printed as NWFc(CITO)WLWKKKK-NH2) [Peptide 104-2]
increased binding affinity in comparison with its peptide control (IgG 4E10): 4 fold | IC50 (IgG 4E10; [2]): 10 nM | IC50 (IgG 4E10; [3]): 10 nM | higher affinity of 4E10 than to the original peptide KGND (IgG 4E10): approximately 10^3 fold | IC50 (IgG 4E10; [4]): 10 nM | Kd (Fab 4E10; Table 6, constrained analogs, 4E10 binding, read-out: Kd): 17 nM | higher affinity of 4E10 than to peptide 33-1 (Fab 4E10; Table 7): about 17 fold | koff (Fab 4E10; Table 7): 0.0034 s⁻¹ | kon (Fab 4E10; Table 7): 202000 M⁻¹ s⁻¹ | Kd (Fab 4E10; [5]): 17 nM | Kd (Fab 4E10; read-out: Kd (Biacore)): 17 nM

SLWNWFDITNWLWKKKK [Peptide 84-4, SLWNWFDITNWLWKKKK-NH2]
IC50 (IgG 4E10; [1]): 120 nM

SLWNWFDITNWLWYIKKKK [SLWNWFDITNWLWYIKKKK-NH2]
IC50 (IgG 4E10; [4]): 10 nM

WNWFDITNWLWKKKK [Peptide 84-2, WNWFDITNWLWKKKK-NH2]
IC50 (IgG 4E10; [1]): 120 nM
